Data from the supplement of paper PMC4862054.

Tests used:
Assay in all cases: normalised response (% of control), CellTiter-Glo; higher = more viable cells (100 = DMSO, 0 = benzethonium chloride kill control)
Conditions in all cases: incubation time: 72 h
[1] = test system: BT-474
Method in brief: (§1)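 Plates were normalised with 0.1 % DMSO as 100 and a positive kill control as 0. Breast cancer cell lines in 20 µl suspension had been seeded into 384-well plates with compound at 5 concentrations in 10-fold steps over a compound-specific 10,000-fold range, incubated 72 h, and read for CellTox Green fluorescence (485/520 nm) followed by CellTiter-Glo luminescence. Each value is the normalised signal at a single concentration.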

[2] = test system: BT-549
Method in brief: as §1

[3] = test system: CAL-120
Method in brief: as §1

[4] = test system: CAL-148
Method in brief: as §1

[5] = test system: CAL-51
Method in brief: as §1

[6] = test system: CAL-85-1
Method in brief: as §1

[7] = test system: DU-4475
Method in brief: as §1

[8] = test system: HCC1143
Method in brief: as §1

[9] = test system: HCC1599
Method in brief: as §1

[10] = test system: HCC1937
Method in brief: as §1

[11] = test system: HDQ-P1
Method in brief: as §1

[12] = test system: Hs578T
Method in brief: as §1

[13] = test system: MCF-10A
Method in brief: as §1

[14] = test system: MDA-MB-231
Method in brief: as §1

[15] = test system: MDA-MB-436
Method in brief: as §1

[16] = test system: MDA-MB-453
Method in brief: as §1

[17] = test system: MDA-MB-468
Method in brief: as §1

[18] = test system: MFM-223
Method in brief: as §1

[19] = test system: SK-BR-3
Method in brief: as §1

Compound | normalised response [1] | normalised response [2] | normalised response [3] | normalised response [4] | normalised response [5] | normalised response [6] | normalised response [7] | normalised response [8] | normalised response [9] | normalised response [10] | normalised response [11] | normalised response [12] | normalised response [13] | normalised response [14] | normalised response [15] | normalised response [16] | normalised response [17] | normalised response [18] | normalised response [19]
CCOC(=O)CCNc1cc(N2CCc3ccccc3CC2)nc(-c2ccccn2)n1 [GSK-J4] (10 nM) | 97.3% | 101% | 102% | 92.8% | 102% | 93.1% | 99% | 92.6% | 104% | 93.1% | 97.4% | 97% | 102% | 95.1% | 95.8% | 91.9% | 97.8% | 99.4% | 97.9%
CCOC(=O)CCNc1cc(N2CCc3ccccc3CC2)nc(-c2ccccn2)n1 [GSK-J4] (100 nM) | 95.7% | 93.8% | 110% | 101% | 97.8% | 100% | 95.3% | 97.6% | 95.5% | 95.2% | 93.1% | 105% | 97.3% | 92.8% | 92.6% | 84.8% | 95.5% | 103% | 68.8%
Cc1cc(Nc2cc(CN3CCOCC3)c3nc(C)c(Cc4ccc(Cl)cc4F)n3n2)n[nH]1 [Gandotinib] (1 nM) | 108% | 105% | 94.4% | 111% | 93.5% | 104% | 106% | 97.8% | 109% | 100% | 97.3% | 100% | 107% | 98.1% | 97.4% | 103% | 112% | 99.7% | 110%
COc1cc2ncnc(Nc3ccc(F)c(Cl)c3)c2cc1OCCCN1CCOCC1 [Gefitinib] (10 nM) | 100% | 98.6% | 96.2% | 105% | 103% | 96.6% | 100% | 98.1% | 89.5% | 98.3% | 97% | 103% | 95.6% | 98% | 103% | 108% | 95.9% | 108% | 107%
NC(=O)c1ccc(I)c([N+](=O)[O-])c1 [Iniparib] (10 nM) | 91.2% | 94.2% | 91.9% | 83.2% | 85.4% | 90.6% | 93.5% | 90% | 94.2% | 95.4% | 89.2% | 92.8% | 81.3% | 92.6% | 87.2% | 77.9% | 90.7% | 84.2% | 74.1%
CCc1c2c(nc3ccc(OC(=O)N4CCC(N5CCCCC5)CC4)cc13)-c1cc3c(c(=O)n1C2)COC(=O)[C@]3(O)CC [Irinotecan] (10 nM) | 100% | 90.8% | 94.2% | 93.7% | 114% | 100% | 106% | 99.7% | 97.5% | 94.8% | 98.4% | 97.7% | 105% | 97.7% | 92.7% | 107% | 105% | 98.7% | 109%
Oc1ccc2c(c1)CC[C@H](c1ccccc1)[C@@H]2c1ccc(OCCN2CCCC2)cc1 [Lasofoxifene] (1 nM) | 102% | 93.2% | 95.1% | 112% | 106% | 96.6% | 105% | 100% | 97.3% | 101% | 96.3% | 103% | 104% | 104% | 101% | 112% | 105% | 107% | 110%
COC(=O)c1ccc2c(c1)NC(=O)/C2=C(\Nc1ccc(N(C)C(=O)CN2CCN(C)CC2)cc1)c1ccccc1 [Nintedanib] (1 nM) | 98% | 97.6% | 104% | 110% | 121% | 99.1% | 101% | 97.1% | 103% | 97.7% | 102% | 95.9% | 103% | 98.7% | 101% | 120% | 110% | 99.1% | 101%
COC(=O)c1ccc2c(c1)NC(=O)/C2=C(\Nc1ccc(N(C)C(=O)CN2CCN(C)CC2)cc1)c1ccccc1 [Nintedanib] (10 nM) | 96.9% | 100% | 100% | 105% | 125% | 95% | 103% | 97% | 133% | 97.3% | 104% | 104% | 107% | 91.2% | 104% | 115% | 102% | 103% | 115%
O=C(Nc1cccnc1)N1CCC(Cc2cccc(Oc3ccc(C(F)(F)F)cn3)c2)CC1 [PF-3845] (10 nM) | 110% | 96.7% | 105% | 112% | 88.9% | 103% | 105% | 106% | 96.9% | 103% | 97.3% | 108% | 115% | 109% | 100% | 106% | 101% | 119% | 96.7%
CNC(=O)c1ccc(N2C(=S)N(c3ccc(C#N)c(C(F)(F)F)c3)C(=O)C23CCC3)cc1F [RD162] (1 nM) | 97% | 93.8% | 98% | 104% | 108% | 96.2% | 102% | 93.7% | 107% | 93.8% | 95.9% | 102% | 102% | 106% | 101% | 104% | 106% | 99.9% | 107%
CNC(=O)c1ccc(N2C(=S)N(c3ccc(C#N)c(C(F)(F)F)c3)C(=O)C23CCC3)cc1F [RD162] (10 nM) | 103% | 93.8% | 95.5% | 107% | 102% | 101% | 102% | 105% | 99.3% | 97% | 96.3% | 95.3% | 105% | 98.2% | 93.7% | 104% | 105% | 102% | 94.4%
CNC(=O)c1cc(Oc2ccc(NC(=O)Nc3ccc(Cl)c(C(F)(F)F)c3)c(F)c2)ccn1 [Regorafenib] (10 nM) | 111% | 106% | 94% | 109% | 108% | 100% | 105% | 100% | 108% | 96% | 102% | 101% | 113% | 95.2% | 104% | 117% | 97.9% | 101% | 110%
CO[C@H]1C[C@@H]2CC[C@@H](C)[C@@](O)(O2)C(=O)C(=O)N2CCCC[C@H]2C(=O)O[C@H]([C@H](C)C[C@@H]2CC[C@@H](OP(C)(C)=O)[C@H](OC)C2)CC(=O)[C@H](C)/C=C(\C)[C@@H](O)[C@@H](OC)C(=O)[C@H](C)C[C@H](C)/C=C/C=C/C=C/1C [Ridaforolimus] (0.01 nM) | 107% | 101% | 103% | 105% | 109% | 99.8% | 103% | 102% | 113% | 99.6% | 109% | 96.8% | 104% | 103% | 103% | 109% | 102% | 105% | 111%
c1ccc2c(CCNc3ccc(Nc4ccncc4)cc3)c[nH]c2c1 [Serdemetan] (10 nM) | 87.6% | 105% | 91.5% | 92% | 105% | 106% | 102% | 93.4% | 115% | 99.4% | 98.7% | 96.5% | 100% | 97.3% | 97.9% | 105% | 95.2% | 98.3% | 94.3%
S=P(N1CC1)(N1CC1)N1CC1 [Thio-TEPA] (5 nM) | 93.2% | 94.9% | 95.4% | 90.4% | 64.7% | 99.2% | 98.6% | 96.2% | 104% | 93.8% | 93.4% | 106% | 101% | 102% | 78.2% | 108% | 91.2% | 102% | 105%
S=P(N1CC1)(N1CC1)N1CC1 [Thio-TEPA] (50 nM) | 97% | 100% | 93% | 94.2% | 71.5% | 98.7% | 103% | 95.7% | 101% | 101% | 94.7% | 99.1% | 103% | 96.6% | 98.5% | 98% | 95.3% | 106% | 91.5%
CN(C)CCOc1ccc(/C(=C(/CCCl)c2ccccc2)c2ccccc2)cc1 [Toremifene] (10 nM) | 101% | 99% | 105% | 109% | 130% | 95.1% | 108% | 98.2% | 91.3% | 98.6% | 99.2% | 103% | 105% | 96.8% | 97.1% | 120% | 103% | 106% | 117%
CC(C)C[C@@H](C(=O)N[C@H](C(=O)OC1CCCC1)c1ccccc1)[C@H](O)C(=O)NO [Tosedostat] (10 nM) | 95.3% | 88.2% | 92.6% | 111% | 125% | 92.2% | 99.5% | 97.2% | 114% | 87.9% | 99.8% | 94.4% | 102% | 94.4% | 96.1% | 93.9% | 78.5% | 104% | 113%
COc1cc2c(NC3CCN(C(C)C)CC3)nc(N3CCC(F)(F)CC3)nc2cc1OCCCN1CCCC1 [UNC0642] (1 nM) | 92.3% | 97.9% | 94.2% | 87.2% | 103% | 93.2% | 97.5% | 95% | 88.9% | 94.5% | 92.7% | 99.3% | 102% | 96% | 89.2% | 105% | 95.9% | 91.2% | 93.1%
